Each structure is given as a SMILES string.

Chain of recombinant IL4I1 (Q96RQ9 22-567): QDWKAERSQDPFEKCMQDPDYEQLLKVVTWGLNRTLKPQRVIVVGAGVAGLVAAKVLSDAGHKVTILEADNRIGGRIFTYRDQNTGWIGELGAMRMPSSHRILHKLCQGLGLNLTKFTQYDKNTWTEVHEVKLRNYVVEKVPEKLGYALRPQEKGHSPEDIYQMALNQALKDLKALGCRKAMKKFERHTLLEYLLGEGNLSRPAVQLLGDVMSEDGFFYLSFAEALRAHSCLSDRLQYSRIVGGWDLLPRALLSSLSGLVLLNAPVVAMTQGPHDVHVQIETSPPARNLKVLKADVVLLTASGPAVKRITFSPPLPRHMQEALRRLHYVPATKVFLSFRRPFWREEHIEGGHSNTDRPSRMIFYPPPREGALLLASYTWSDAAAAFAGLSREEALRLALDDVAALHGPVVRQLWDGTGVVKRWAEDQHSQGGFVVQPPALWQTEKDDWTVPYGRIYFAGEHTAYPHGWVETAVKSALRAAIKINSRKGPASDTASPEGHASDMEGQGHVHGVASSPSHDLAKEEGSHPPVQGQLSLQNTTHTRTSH

The experiment deals with recombinant IL4I1 (Homo sapiens (Human), UniProt Q96RQ9). Put plainly: IL4I1 Enzymatic Assay (Amplex Red/HRP coupled H2O2 detection). Format: biochemical. The following applies: 1 nM IL4I1, 1 mM each Phe/Tyr/Trp, four-hour pre-incubation, 120 minutes reaction, top compound concentration of 10000 nM. As for the experimental part:
Interleukin 4 inducible protein 1 (IL4I1) is an L-amino oxidase that catalyzes the oxidation of aromatic residues (Phe, Trp and Tyr): L-amino acid+H2O+O2→2-oxo acid+NH3+H2O2. Equal molar of H2O2 and the corresponding alpha-ketoacid are produced when IL4I1 and substrate are added. In this assay, the hydrogen peroxide generated by IL4I1 are then detected through a coupled reaction with Amplex Red (10-acetyl-3,7-dihydroxyphenoxazine) and […] (HRP) to produce Resorufin product that could be detected in the form of fluorescence signals. The assessment of the inhibitory effect of small molecules (EC50) on IL4I1 is measured by the effectiveness of the compounds to inhibit the production of H2O2.
Using this assay, the potency (EC50) of each compound was determined from a ten-point (1:3 serial dilution; top compound concentration of 10000 nM) titration curve using the following outlined procedure. To each well of a black flat-bottom Greiner (Cat #781076) 384 well-plate, 25 nL of compound (0.1% DMSO in final assay volume of 25 μL) was dispensed, followed by the addition of 12.5 μL of 1× assay buffer (50 mM Hepes 7.0 and 0.005% Tween20 (Sigma, Cat #P8341; low peroxide grade)) containing 2 nM of recombinant IL4I1 (R&D Systems, Cat #5684-AO-020). Plates were placed in an ambient temperature humidified chamber for a four-hour pre-incubation with compound. Subsequently, each reaction was initiated by the addition of 12.5 μL 1× assay buffer containing 2 mM of each aromatic amino acids (Phe/Tyr/Trp), 0.1 mM Amplex Red and 2 U/mL of HRP. The final reaction in each well of 25 μL consists of 1 nM of IL4I1, 1 mM of each residues (Phe, Tyr and Trp), 0.05 mM Amplex Red and 1 U/mL of HRP. It should be noted that the concentrations of Amplex Red and HRP used here are in excess such that the conversion of H2O2 to Resorufin product occurs instantaneously and non-rate limiting. Reactions were allowed to proceed for 120 minutes followed by fluorescence readout on a Spectramax with the following set parameters: 544 nm excitation/590 nm emission, 570 nm cutoff (EnVision is an alternative reader). Dose-response curves were generated by plotting percent effect (% product conversion; Y-axis) vs. Log10 compound concentrations (X-axis). EC50 values were calculated using a non-linear regression, four-parameters sigmoidal dose-response model.
In general, EC50 refers to the concentration at which the effect is half-maximal. For `Cc1oncc1-c1nnc(Cc2cc3ccccc3[nH]c2=O)o1` [Example 29, 3-((5-(5-methylisoxazol-4-yl)-1,3,4-oxadiazol-2-yl)methyl)quinolin-2(1H)-one], the EC50 was found to be 547 nM.

For the compound `O=c1[nH]c2ccccc2cc1Cc1ccc(CC2CNC2)cc1` [compound 64, 3-(4-(azetidin-3-ylmethyl)benzyl)quinolin-2(1H)-one], the EC50 is 10.8 nM. The result for `CC(=O)NCc1ncc(Cc2cc3ccccc3[nH]c2=O)cc1Cl` [Example 68, N-((3-chloro-5-((2-oxo-1,2-dihydroquinolin-3-yl)methyl)pyridin-2-yl)methyl)acetamide] reads 12.3 nM; that for `O=C(c1ccc(Cc2cc3ccccc3[nH]c2=O)cc1)N1CC(O)C1` [Example 1, 3-(4-(3-hydroxyazetidine-1-carbonyl)benzyl)quinolin-2(1H)-one], 15.5 nM. With `N#CC1(c2ccc(Cc3cc4ccccc4[nH]c3=O)cn2)COC1` [Example 99, 3-(5-((2-oxo-1,2-dihydroquinolin-3-yl)methyl)pyridin-2-yl)oxetane-3-carbonitrile], the EC50 turned out to be 5.9 nM. The result for `CC(C)(C#N)n1cc(Cc2cc3ccccc3[nH]c2=O)cn1` [Example 148, 2-methyl-2-(4-((2-oxo-1,2-dihydroquinolin-3-yl)methyl)-1H-pyrazol-1-yl)propanenitrile] reads 258 nM; that for `COc1cc(C#N)cc(Cc2cc3ccccc3[nH]c2=O)c1` [Example 133, 3-methoxy-5-((2-oxo-1,2-dihydroquinolin-3-yl)methyl)benzonitrile], 2 nM. The result for `N#Cc1cnn2ccc(Cc3cc4ccccc4[nH]c3=O)cc12` [Example 92, 5-((2-oxo-1,2-dihydroquinolin-3-yl)methyl)pyrazolo[1,5-a]pyridine-3-carbonitrile] reads 1.7 nM; that for `O=c1[nH]c2ccccc2cc1Cc1cc(-c2ccccc2)no1` [Example 140, 3-((3-phenylisoxazol-5-yl)methyl)quinolin-2(1H)-one], 23.4 nM; that for `C[C@]1(c2ccc(Cc3cc4ccccc4[nH]c3=O)cc2)CCC(=O)N1` (single isomer, unassigned) [Example 183A, (S or R)-3-(4-(2-methyl-5-oxopyrrolidin-2-yl)benzyl)quinolin-2(1H)-one], 15.7 nM. The result for `CC1(O)CC(c2ccc(Cc3cc4ccccc4[nH]c3=O)cc2)C1` (centres unmarked) [Example 161, 3-(4-(3-hydroxy-3-methylcyclobutyl)benzyl)quinolin-2(1H)-one] reads 3.2 nM; that for `CC(=O)NCc1ccc(Cc2cc3ccccc3[nH]c2=O)cc1Cl` [Example 66, N-(2-chloro-4-((2-oxo-1,2-dihydroquinolin-3-yl)methyl)benzyl)acetamide], 2 nM; that for `O=C1COc2c(Cl)cc(Cc3cc4ccccc4[nH]c3=O)cc2N1` [Example 170, 8-Chloro-6-((2-oxo-1,2-dihydroquinolin-3-yl)methyl)-2H-benzo[b][1,4]oxazin-3(4H)-one], 1 nM. Regarding `O=c1[nH]c2ccccc2cc1Cc1ccc([C@H]2CCNC2)cc1` [65B], the EC50 was 9 nM.

Take `O=C1COc2ncc(Cc3cc4ccccc4[nH]c3=O)cc2N1` [Example 89, 7-((2-oxo-1,2-dihydroquinolin-3-yl)methyl)-1H-pyrido[2,3-b][1,4]oxazin-2(3H)-one]: the EC50 is 4.5 nM. Turning to `O=c1[nH]c2ccccc2cc1Cc1ccc(-c2cn[nH]c2)cc1` [Example 125, 3-(4-(1H-pyrazol-4-yl)benzyl)quinolin-2(1H)-one], the EC50 is 6.1 nM.

Turning to `CC(=O)NCc1ccc(Cc2cc3ccccc3[nH]c2=O)cn1` [Example 84, N-((5-((2-oxo-1,2-dihydroquinolin-3-yl)methyl)pyridin-2-yl)methyl)acetamide], the EC50 stood at 13.8 nM.

Regarding `CC(=O)NCc1ccc(Cc2cc3ccccc3[nH]c2=O)cc1F` [Example 166, N-(2-fluoro-4-((2-oxo-1,2-dihydroquinolin-3-yl)methyl)benzyl)acetamide], the EC50 is 2.7 nM. With `O=C1CCc2cc(Cc3cc4ccccc4[nH]c3=O)ccc2N1` [Example 154, 3-((2-oxo-1,2,3,4-tetrahydroquinolin-6-yl)methyl)quinolin-2(1H)-one] the figure was 5.4 nM; with `Cn1ncc2cc(Cc3cc4ccccc4[nH]c3=O)ccc21` [Example 153, 3-((1-methyl-1H-indazol-5-yl)methyl)quinolin-2(1H)-one], 1.2 nM; with `CC(=O)NCc1cccc(Cc2cc3ccccc3[nH]c2=O)c1` [Example 128, N-(3-((2-oxo-1,2-dihydroquinolin-3-yl)methyl)benzyl)acetamide], 30.4 nM. The result for `O=c1[nH]c2ccccc2cc1Cc1nnc(-c2ccc(C(F)(F)F)cc2)o1` [Example 7, 3-((5-(4-(trifluoromethyl)phenyl)-1,3,4-oxadiazol-2-yl)methyl)quinolin-2(1H)-one] reads 82.2 nM; that for `Cn1cc2c(Cc3cc4cc(F)ccc4[nH]c3=O)cccc2n1` [Example 163, 6-fluoro-3-((2-methyl-2H-indazol-4-yl)methyl)quinolin-2(1H)-one], 5.4 nM. The result for `O=c1[nH]c2ccccc2cc1Cc1ccc(OC2CCOCC2)nc1` [Example 85, 3-((6-((tetrahydro-2H-pyran-4-yl)oxy)pyridin-3-yl)methyl)quinolin-2(1H)-one] reads 8.7 nM; that for `O=C1OCCN1c1ccc(Cc2cc3ccccc3[nH]c2=O)cn1` [Example 108, 3-(5-((2-oxo-1,2-dihydroquinolin-3-yl)methyl)pyridin-2-yl)oxazolidin-2-one], 1.9 nM; that for `Cc1n[nH]c(-c2nnc(Cc3cc4ccccc4[nH]c3=O)o2)c1C` [Example 44, 3-((5-(3,4-dimethyl-1H-pyrazol-5-yl)-1,3,4-oxadiazol-2-yl)methyl)quinolin-2(1H)-one], 7.7 nM.

On to `O=c1[nH]c2ccccc2cc1Cc1nnc(C2(C(F)(F)F)CC2)o1` [Example 34, 3-((5-(1-(trifluoromethyl)cyclopropyl)-1,3,4-oxadiazol-2-yl)methyl)quinolin-2(1H)-one], for which the EC50 came out at 653 nM. Regarding `O=C1CCc2ccc(Cc3cc4ccccc4[nH]c3=O)cc21` [Example 75, 3-((3-oxo-2,3-dihydro-1H-inden-5-yl)methyl)quinolin-2(1H)-one], the EC50 amounted to 0.9 nM. The result for `N#CC1(c2ccc(Cc3cc4ccccc4[nH]c3=O)cc2)CC1` [Example 98, 1-(4-((2-oxo-1,2-dihydroquinolin-3-yl)methyl)phenyl)cyclopropane-1-carbonitrile] reads 1 nM. With `O=C1CC[C@@H](c2ccc(Cc3cc4ccccc4[nH]c3=O)cc2)N1` [Example 159, (S)-3-(4-(5-oxopyrrolidin-2-yl)benzyl)quinolin-2(1H)-one] the figure was 4.1 nM.

Regarding `O=C1OCCN1c1ccc(Cc2cc3cnccc3[nH]c2=O)cc1` [Example 61, 3-(4-((2-oxo-1,2-dihydro-1,6-naphthyridin-3-yl)methyl)phenyl)oxazolidin-2-one], the EC50 stood at 2.7 nM. The result for `NS(=O)(=O)Cc1ccc(Cc2cc3ccccc3[nH]c2=O)cc1` [Example 72, (4-((2-oxo-1,2-dihydroquinolin-3-yl)methyl)phenyl)methanesulfonamide] reads 2.2 nM; that for `CS(=N)(=O)Cc1ccc(Cc2cc3ccccc3[nH]c2=O)cc1` (single isomer, unassigned) [Example 187, 3-(4-(((S or R)-methylsulfonimidoyl)methyl)benzyl)quinolin-2(1H)-one], 28.6 nM; that for `CC1(O)CN(c2ccc(Cc3cc4ccccc4[nH]c3=O)cn2)C(=O)O1` (racemic) [Example 51, rac-5-hydroxy-5-methyl-3-(5-((2-oxo-1,2-dihydroquinolin-3-yl)methyl)pyridin-2-yl)oxazolidin-2-one], 29.1 nM. With `O=C1NCc2ccc(Cc3cc4cnccc4[nH]c3=O)cc21` [Example 118, 3-((3-oxoisoindolin-5-yl)methyl)-1,6-naphthyridin-2(1H)-one] the figure was 11.1 nM. With `CC(=O)N1Cc2ccc(Cc3cc4ccccc4[nH]c3=O)cc2C1` [Example 83, 3-((2-acetylisoindolin-5-yl)methyl)quinolin-2(1H)-one] the figure was 3.8 nM; with `O=c1[nH]c2cnccc2cc1Cc1ccccc1` [Example 104, 3-benzyl-1,7-naphthyridin-2(1H)-one], 9180 nM; with `CC(=O)NCc1ccc(Cc2cc3ccccc3n(C)c2=O)cc1` [Example 151, N-(4-((1-Methyl-2-oxo-1,2-dihydroquinolin-3-yl)methyl)benzyl)acetamide], 3.3 nM.

For the origin of these results see patent US20240287022A1 (Merck Sharp & Dohme LLC, priority 2021, published 2024).
